Here are results for three compounds from US10722515B2, “Dual CLK/CDK1 inhibitors for cancer treatment” (SRI INTERNATIONAL, priority 2016, dated 2020).

The target of one assay is T1, CLK2(h) (Homo sapiens, UniProt P49760).
T1 construct: purchased Eurofins, Dundee, Scotland
Kind of assay: radiometric protein kinase assay, CLK2. Type of assay: biochemical. The conditions noted are these: enzyme inhibition, ATP 10 μM. How it is done: (§1) Enzymatic biochemical activities were evaluated in radiometric protein kinase assays (Eurofins, Dundee, Scotland). Kinases are incubated with buffer, substrate and [γ-^33P]-ATP (specific activity approx. 500 cpm/pmol, concentration as required). The reaction is initiated by the addition of the MgATP mix. After incubation for 40 minutes at room temperature, the reaction is stopped by the addition of 3% phosphoric acid solution. 10 μL of the reaction is then spotted onto a P30 filtermat and washed three times for 5 minutes in 75 mM phosphoric acid and once in methanol prior to drying and scintillation counting.
(§2) All compounds are prepared to 50× final assay concentration in 100% DMSO. Positive control wells contain all components of the reaction with 2% DMSO. Blank wells contain all components of the reaction, with a reference inhibitor replacing the compound of interest. Each kinase is assigned a standard assay concentration of ATP within 20 μM of its apparent KM. Compounds were screened at 1 μM in duplicate or tested at 10 concentrations at half log dilution starting from 10 μM in singlicate. Dose response curves were fitted with four parameter logistic curve to obtain IC50 values. The average coefficient of variation (CV) of the conducted assay is 4.4%.

In another assay the target is T2, CLK4(h) (Homo sapiens, UniProt Q9HAZ1).
T2 construct: purchased Eurofins, Dundee, Scotland
The assay is described as follows: radiometric protein kinase assay, CLK4. Type of assay: biochemical. The following applies: enzyme inhibition, ATP 10 μM. How it is done: as §1, §2

For another assay, the target named is T3, Abl(h) (Homo sapiens, UniProt P00519).
T3 construct: purchased Eurofins, Dundee, Scotland
The assay is described as follows: kinase profile, radiometric assay, Abl. Type of assay: biochemical. How it is done:
as §1, §2

The next assay deals with T4, Aurora-B(h) (Homo sapiens, UniProt Q96GD4).
T4 construct: purchased Eurofins, Dundee, Scotland
The assay is described as follows: kinase profile, radiometric assay, Aurora-B. Type of assay: biochemical. The protocol: as §1, §2

The target of a further assay is T5, EGFR(h) (Homo sapiens, UniProt P00533).
T5 construct: purchased Eurofins, Dundee, Scotland
Kind of assay: kinase profile, radiometric assay, EGFR. It is filed as biochemical. The protocol: as §1, §2

In the next assay the target is T6, Fms(h) (Homo sapiens, UniProt P07333).
T6 construct: purchased Eurofins, Dundee, Scotland
The assay is described as follows: kinase profile, radiometric assay, Fms. Type of assay: biochemical. How it is done: as §1, §2

The target in a further assay is T7, MEK1(h) (Homo sapiens, UniProt Q02750).
T7 construct: purchased Eurofins, Dundee, Scotland
The assay is described as follows: kinase profile, radiometric assay, MEK1. It is filed as biochemical. The protocol: as §1, §2

A further assay has as its target T8, MEKK2(h) (Homo sapiens, UniProt Q9Y2U5).
T8 construct: purchased Eurofins, Dundee, Scotland
T8 sequence (Q9Y2U5 1-619): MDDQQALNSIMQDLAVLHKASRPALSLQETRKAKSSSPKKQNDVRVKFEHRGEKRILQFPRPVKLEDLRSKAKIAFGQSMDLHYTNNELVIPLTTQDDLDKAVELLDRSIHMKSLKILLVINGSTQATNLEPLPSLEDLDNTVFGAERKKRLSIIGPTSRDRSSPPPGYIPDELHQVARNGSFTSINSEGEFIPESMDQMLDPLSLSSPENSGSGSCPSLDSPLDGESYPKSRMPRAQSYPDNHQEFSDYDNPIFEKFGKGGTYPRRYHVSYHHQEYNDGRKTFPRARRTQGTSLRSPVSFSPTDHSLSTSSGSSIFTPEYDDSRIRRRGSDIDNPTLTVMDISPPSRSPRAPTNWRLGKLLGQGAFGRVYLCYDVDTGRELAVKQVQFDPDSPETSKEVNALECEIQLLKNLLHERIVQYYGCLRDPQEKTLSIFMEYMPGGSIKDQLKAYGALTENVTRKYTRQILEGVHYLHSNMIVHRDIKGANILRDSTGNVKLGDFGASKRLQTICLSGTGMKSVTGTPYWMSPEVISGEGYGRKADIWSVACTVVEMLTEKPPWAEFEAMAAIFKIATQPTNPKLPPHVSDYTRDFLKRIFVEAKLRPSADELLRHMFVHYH
Kind of assay: kinase profile, radiometric assay, MEKK2. Type of assay: biochemical. How it is done:
as §1, §2

In another assay the target is T9, Src(1-530)(h) (Homo sapiens, UniProt P12931).
T9 construct: Src(1-530)
Kind of assay: kinase profile, radiometric assay, Src(1-530). It is filed as biochemical. How it is done: as §1, §2

The test system of assay [1] is PI3 Kinase (p110β/p85α)(h). Kind of assay: kinase profile, non-radiometric HTRF assay, PI3 kinases. It is filed as biochemical, human. The conditions noted are these: at 1 μM. (In general: In TR-FRET formats the signal depends on donor and acceptor labels being close together.)
The target of a further assay is T10, CLK3(h) (Homo sapiens, UniProt P49761).
T10 construct: purchased Eurofins, Dundee, Scotland
Kind of assay: radiometric protein kinase assay, CLK3. Type of assay: biochemical. The conditions noted are these: enzyme inhibition, radiometric, ATP 90 μM; read-out: IC50 (nM) CLK3. How it is done: as §1, §2

For the next assay, the target named is T11, CDK1/cyclinB(h) (Homo sapiens, UniProt P06493).
T11 construct: purchased Eurofins, Dundee, Scotland
The assay is described as follows: radiometric protein kinase assay, CDK1. Type of assay: biochemical. The following applies: enzyme inhibition, ATP 45 μM. The protocol: as §1, §2

Another assay addresses T12, CDK4/cyclinD3(h) (Homo sapiens, UniProt P11802).
T12 construct: purchased Eurofins, Dundee, Scotland
The assay is described as follows: radiometric protein kinase assay, CDK4. Type of assay: biochemical. The conditions noted are these: enzyme inhibition, ATP 20 μM. The protocol: as §1, §2

Another assay has as its target T13, CDK6/cyclinD3(h) (Homo sapiens, UniProt Q00534).
T13 construct: purchased Eurofins, Dundee, Scotland
Kind of assay: radiometric protein kinase assay, CDK6. The conditions noted are these: enzyme inhibition, ATP 20 μM. It is filed as biochemical. How it is done:
as §1, §2

Assay [2] deals with MDM2 alternate splicing in Rh-18 cells. Kind of assay: Rh-18 MDM2 RT-PCR gel-based assay (orthogonal secondary assay). The following applies: 10 μM, 8 h. It is filed as cell-based. How it is done:
These hits were then subjected to a confirmatory assay in the Rh-18 MDM2 RT-PCR gel-based assay at a concentration of 10 μM.
Referring to FIG. 6, cells were exposed to 0.5% DMSO, 0.2 μM sudemycin D6 or […] CGP-74514A for 8 h. Total RNA was extracted by RNeasy Mini Kit (Qiagen). High capacity RNA-to-cDNA kit (Life technologies) was used to convert the RNA to cDNA.
Referring to FIG. 7, cells were exposed to 0.5% DMSO (lane 1), 1 μM sudemycin D6 (lane 2), 10 μM Compound 14 (lane 3), and 10 μM Compound 15 (lane 4) for 8 h. The total RNA was extracted by RNeasy Mini Kit (Qiagen). High capacity RNA-to-cDNA kit (Life technologies) was used to convert the RNA to cDNA. […] Ubiquitin transcripts (165 bp) in the same cells were used as a control (Fan et al. (2011) ACS Chem. Biol. 6: 582-9).

For another assay, the system named is 22 oncogenic kinases. Kind of assay: kinase profiling against 22 oncogenic kinases. The conditions noted are these: 1 μM in duplicate. It is filed as biochemical, human. How it is done: as §1, §2
[3] abbreviates: first of three lines printed with this name (r24).
[4] abbreviates: second of three lines with this name.
Where [5] appears, read: third of three lines printed with this name (r26).

In general, IC50 refers to the concentration that gives 50% inhibition. The term inhibition denotes the drop in the measured response relative to a control, in per cent.

Where only a bound is given, the exact number is not on record here.

T3 sequence (P00519 whole entry): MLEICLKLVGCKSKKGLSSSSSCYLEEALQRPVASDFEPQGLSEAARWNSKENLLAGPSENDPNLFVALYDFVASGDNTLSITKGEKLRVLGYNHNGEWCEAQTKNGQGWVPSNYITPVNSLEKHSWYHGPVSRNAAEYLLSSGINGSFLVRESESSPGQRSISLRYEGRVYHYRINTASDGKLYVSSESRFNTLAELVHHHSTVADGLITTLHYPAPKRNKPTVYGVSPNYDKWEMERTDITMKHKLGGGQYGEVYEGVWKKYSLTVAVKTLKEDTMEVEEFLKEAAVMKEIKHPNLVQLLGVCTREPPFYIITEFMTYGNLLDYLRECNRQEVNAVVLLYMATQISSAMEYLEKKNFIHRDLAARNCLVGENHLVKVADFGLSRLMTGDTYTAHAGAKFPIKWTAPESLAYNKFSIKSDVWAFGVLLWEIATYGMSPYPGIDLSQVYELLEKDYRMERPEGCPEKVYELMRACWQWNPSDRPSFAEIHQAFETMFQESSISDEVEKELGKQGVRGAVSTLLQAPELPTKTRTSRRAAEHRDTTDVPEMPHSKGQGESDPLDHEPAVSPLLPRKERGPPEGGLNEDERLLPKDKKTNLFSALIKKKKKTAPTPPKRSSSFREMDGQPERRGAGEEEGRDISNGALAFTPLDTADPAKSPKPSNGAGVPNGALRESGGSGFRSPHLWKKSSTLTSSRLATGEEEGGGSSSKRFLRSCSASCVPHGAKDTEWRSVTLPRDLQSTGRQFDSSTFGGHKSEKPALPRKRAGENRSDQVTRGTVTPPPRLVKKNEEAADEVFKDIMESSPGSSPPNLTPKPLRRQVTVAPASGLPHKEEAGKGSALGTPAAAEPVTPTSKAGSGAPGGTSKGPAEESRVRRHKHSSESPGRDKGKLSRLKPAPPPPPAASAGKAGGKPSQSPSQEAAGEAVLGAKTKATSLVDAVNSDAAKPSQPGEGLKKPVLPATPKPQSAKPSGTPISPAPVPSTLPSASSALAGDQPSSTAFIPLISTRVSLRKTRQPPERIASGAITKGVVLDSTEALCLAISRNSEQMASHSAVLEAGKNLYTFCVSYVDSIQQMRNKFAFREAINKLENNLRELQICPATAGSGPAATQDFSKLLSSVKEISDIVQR
T9 sequence (P12931 1-530): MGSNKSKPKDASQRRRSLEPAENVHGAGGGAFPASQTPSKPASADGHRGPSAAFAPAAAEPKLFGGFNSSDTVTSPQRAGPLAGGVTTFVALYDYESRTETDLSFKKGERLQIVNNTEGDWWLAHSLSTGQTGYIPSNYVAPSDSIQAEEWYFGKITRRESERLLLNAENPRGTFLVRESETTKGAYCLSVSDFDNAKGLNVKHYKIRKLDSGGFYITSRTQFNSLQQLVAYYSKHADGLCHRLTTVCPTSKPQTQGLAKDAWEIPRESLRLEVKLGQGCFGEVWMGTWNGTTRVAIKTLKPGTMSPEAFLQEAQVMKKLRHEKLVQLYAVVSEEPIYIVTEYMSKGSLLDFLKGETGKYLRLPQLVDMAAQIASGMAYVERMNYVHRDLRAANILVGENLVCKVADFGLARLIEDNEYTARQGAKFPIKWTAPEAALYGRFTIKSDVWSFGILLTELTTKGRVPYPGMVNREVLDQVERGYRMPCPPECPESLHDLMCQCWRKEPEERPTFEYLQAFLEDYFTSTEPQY
T2 sequence (Q9HAZ1 whole entry): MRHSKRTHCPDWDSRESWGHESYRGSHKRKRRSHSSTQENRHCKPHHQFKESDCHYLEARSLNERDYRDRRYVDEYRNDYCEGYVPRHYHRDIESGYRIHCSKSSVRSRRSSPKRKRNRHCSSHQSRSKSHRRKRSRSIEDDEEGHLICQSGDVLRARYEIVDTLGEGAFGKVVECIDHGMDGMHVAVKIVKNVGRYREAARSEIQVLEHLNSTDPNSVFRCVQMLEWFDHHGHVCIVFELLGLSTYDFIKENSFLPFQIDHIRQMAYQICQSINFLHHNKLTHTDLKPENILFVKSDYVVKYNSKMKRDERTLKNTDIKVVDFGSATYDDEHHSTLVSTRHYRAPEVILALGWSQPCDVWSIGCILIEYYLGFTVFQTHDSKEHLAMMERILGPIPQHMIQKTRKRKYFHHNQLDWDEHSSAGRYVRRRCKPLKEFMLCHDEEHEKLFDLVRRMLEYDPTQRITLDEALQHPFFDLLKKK
T7 sequence (Q02750 whole entry): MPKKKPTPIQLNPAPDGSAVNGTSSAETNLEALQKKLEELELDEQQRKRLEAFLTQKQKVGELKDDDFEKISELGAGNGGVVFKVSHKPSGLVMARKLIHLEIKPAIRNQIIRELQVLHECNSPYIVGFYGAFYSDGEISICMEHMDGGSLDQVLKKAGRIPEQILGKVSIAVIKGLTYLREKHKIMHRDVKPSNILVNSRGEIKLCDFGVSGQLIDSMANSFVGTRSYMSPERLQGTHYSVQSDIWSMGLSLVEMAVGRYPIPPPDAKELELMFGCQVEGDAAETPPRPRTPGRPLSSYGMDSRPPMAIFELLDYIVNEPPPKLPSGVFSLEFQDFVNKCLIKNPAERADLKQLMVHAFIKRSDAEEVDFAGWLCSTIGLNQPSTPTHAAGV
T5 sequence (P00533 25-1210): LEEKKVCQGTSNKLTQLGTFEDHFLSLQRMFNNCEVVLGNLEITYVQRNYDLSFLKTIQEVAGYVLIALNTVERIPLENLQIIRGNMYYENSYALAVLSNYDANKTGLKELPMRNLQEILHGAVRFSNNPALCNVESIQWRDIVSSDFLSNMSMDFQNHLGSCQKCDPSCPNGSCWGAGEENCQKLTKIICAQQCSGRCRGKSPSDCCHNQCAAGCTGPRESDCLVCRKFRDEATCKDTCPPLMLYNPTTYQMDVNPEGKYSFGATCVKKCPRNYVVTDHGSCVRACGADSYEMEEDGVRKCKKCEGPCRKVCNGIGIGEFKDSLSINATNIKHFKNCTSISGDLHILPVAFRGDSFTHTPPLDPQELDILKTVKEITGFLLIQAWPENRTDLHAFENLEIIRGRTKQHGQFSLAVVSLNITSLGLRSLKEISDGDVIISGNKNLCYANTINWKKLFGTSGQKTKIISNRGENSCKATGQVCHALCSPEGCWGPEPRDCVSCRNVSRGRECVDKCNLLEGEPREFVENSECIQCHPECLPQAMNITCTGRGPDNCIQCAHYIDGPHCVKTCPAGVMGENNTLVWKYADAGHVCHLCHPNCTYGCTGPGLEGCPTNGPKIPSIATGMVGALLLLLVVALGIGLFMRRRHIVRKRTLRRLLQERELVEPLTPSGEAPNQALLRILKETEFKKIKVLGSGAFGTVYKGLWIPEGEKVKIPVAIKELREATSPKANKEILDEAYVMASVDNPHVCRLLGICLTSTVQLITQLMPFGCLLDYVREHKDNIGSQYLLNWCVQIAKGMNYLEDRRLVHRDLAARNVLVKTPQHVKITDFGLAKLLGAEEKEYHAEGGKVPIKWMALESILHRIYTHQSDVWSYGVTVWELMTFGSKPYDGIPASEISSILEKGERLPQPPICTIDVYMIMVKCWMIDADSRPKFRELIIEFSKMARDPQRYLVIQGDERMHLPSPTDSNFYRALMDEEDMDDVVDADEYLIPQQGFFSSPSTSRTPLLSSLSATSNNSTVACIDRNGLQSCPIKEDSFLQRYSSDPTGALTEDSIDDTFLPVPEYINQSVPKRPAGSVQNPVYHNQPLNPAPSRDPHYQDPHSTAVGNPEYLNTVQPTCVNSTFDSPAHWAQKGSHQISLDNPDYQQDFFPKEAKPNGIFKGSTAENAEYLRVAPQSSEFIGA
T4 sequence (Q96GD4 whole entry): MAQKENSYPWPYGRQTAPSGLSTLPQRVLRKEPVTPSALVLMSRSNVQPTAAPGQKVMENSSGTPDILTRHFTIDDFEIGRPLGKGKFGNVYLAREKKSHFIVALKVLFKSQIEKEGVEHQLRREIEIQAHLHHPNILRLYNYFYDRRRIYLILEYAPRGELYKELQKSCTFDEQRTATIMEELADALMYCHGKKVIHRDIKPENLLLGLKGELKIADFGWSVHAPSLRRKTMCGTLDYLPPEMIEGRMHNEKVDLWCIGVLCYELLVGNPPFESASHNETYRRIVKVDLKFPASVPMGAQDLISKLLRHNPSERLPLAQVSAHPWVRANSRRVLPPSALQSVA
T1 sequence (P49760 whole entry): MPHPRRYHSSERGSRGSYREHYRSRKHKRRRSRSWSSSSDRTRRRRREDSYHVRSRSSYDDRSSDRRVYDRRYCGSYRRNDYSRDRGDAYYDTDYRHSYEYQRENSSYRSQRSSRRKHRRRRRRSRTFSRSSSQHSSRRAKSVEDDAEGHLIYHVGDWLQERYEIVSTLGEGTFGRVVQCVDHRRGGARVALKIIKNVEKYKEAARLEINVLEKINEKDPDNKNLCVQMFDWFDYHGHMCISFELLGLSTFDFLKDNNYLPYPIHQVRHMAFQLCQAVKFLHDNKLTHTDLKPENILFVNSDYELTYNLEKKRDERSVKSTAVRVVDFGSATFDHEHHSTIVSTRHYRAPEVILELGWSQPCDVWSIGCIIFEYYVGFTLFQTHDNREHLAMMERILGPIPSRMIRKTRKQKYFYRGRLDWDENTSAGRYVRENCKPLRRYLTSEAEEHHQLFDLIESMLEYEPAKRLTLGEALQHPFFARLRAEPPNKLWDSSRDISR

Take `CC(C)n1cnc2c(Nc3cccc(Cl)c3)nc(N[C@@H]3CCCC[C@@H]3N)nc21` [Compound 9, N^2-((1R,2S)-2-Aminocyclohexyl)-N^6-(3-Chlorophenyl)-9-Isopropyl-9H-Purine-2,6-Diamine]: the figures for the IC50 against CLK2(h) and at CLK4(h) were 11 nM and 50 nM, respectively. In addition, the inhibition at 1 µM at Abl(h) was 2%; against Aurora-B(h), -16%; on EGFR(h) it was 3%; on Fms(h) it was -16%; at MEK1(h), 8%; against MEKK2(h), 18%. The inhibition at 1 µM at Src(1-530)(h) worked out at 69%. Moreover, the “% Inhibition PI3 Kinase (p110β/p85α)(h)” value came out at 4% in assay [1] (setting [3]), 3% in [1] (setting [4]) and 5% in assay [1] (setting [5]).

Turning to `CC(C)n1cnc2c(Nc3cc(N)cc(Cl)c3)nc(NC3CCCCC3N)nc21` (racemic) [Compound 14, Racemic N^6-Cis-(3-Amino-5-Chlorophenyl)-N^2-(2-Aminocyclohexyl)-9-Isopropyl-9H-Purine-2,6-Diamine], the 50% inhibitory concentration (IC50) against CLK2(h) was 16 nM; at CLK3(h), greater than 1000 nM; against CLK4(h), 54 nM; on CDK1/cyclinB(h), 973 nM; against CDK4/cyclinD3(h) it was greater than 1000 nM; on CDK6/cyclinD3(h) it was greater than 1000 nM. In addition, the inhibition at 1 µM against Abl(h) was 8%; against Aurora-B(h), -16%; on EGFR(h) it was -1%; on Fms(h) it was 9%; against MEK1(h) it was 6%; on MEKK2(h), 48%. For the same compound, the inhibition at 1 µM on Src(1-530)(h) was determined as 78%. Besides, the “% Inhibition PI3 Kinase (p110β/p85α)(h)” value in assay [1] (setting [3]) worked out at 4%; in [1] (setting [4]) it was 0%; in assay [1] (setting [5]) it was 1%. The “activity in the Rh-18 MDM2 RT-PCR gel-based confirmatory assay” value in assay [2] is listed as “confirmation”.

For the compound `CC(C)n1cnc2c(Nc3cccc(Cl)c3)nc(N[C@H]3CCCC[C@@H]3N)nc21` [Compound 8, N^2-((1S,2S)-2-Aminocyclohexyl)-V-(3-Chlorophenyl)-9-Isopropyl-9H-Purine-2,6-Diamine], the IC50 at CLK2(h) is 16 nM; against CLK4(h), 86 nM. The inhibition at 1 µM was -2% on Abl(h); -15% against Aurora-B(h); -6% against EGFR(h); -1% against Fms(h); 10% against MEK1(h); 47% on MEKK2(h). Also, the inhibition at 1 µM against Src(1-530)(h) is 22%. Further, the “% Inhibition PI3 Kinase (p110β/p85α)(h)” value is on record as 5% in assay [1] (setting [3]), 2% in [1] (setting [4]) and 2% in [1] (setting [5]). The “inhibition against the entire 22 diverse kinase panel” value in the assay on 22 oncogenic kinases is listed as less than 50%.
